Data reported in the NIST ThermoML archive (doi:10.1021/je4004806).
± gives the expanded uncertainty stated by the source.

Assay: xn = mol fraction of the nth substance listed
Conditions: 101 kPa, Liquid; for viscosity: Capillary tube (Ostwald / Ubbelohde) method; for mass density: Vibrating tube method

Structure (SMILES): CCCCCCCC [octane] + CCCO
- viscosity (293.15 K, x1 = 0.0997): 1.692 ± 0.021 mPa·s
- viscosity (293.15 K, x1 = 0.1999): 1.356 ± 0.016 mPa·s
- viscosity (293.15 K, x1 = 0.3): 1.092 ± 0.013 mPa·s
- viscosity (293.15 K, x1 = 0.3997): 0.934 ± 0.011 mPa·s
- viscosity (293.15 K, x1 = 0.4993): 0.798 ± 0.01 mPa·s
- viscosity (293.15 K, x1 = 0.602): 0.703 ± 0.01 mPa·s
- viscosity (293.15 K, x1 = 0.6991): 0.632 ± 0.009 mPa·s
- viscosity (293.15 K, x1 = 0.7994): 0.587 ± 0.009 mPa·s
- viscosity (293.15 K, x1 = 0.9): 0.556 ± 0.009 mPa·s
- viscosity (293.15 K, x1 = 1): 0.545 ± 0.009 mPa·s
- mass density (293.15 K, x1 = 0.0997): 782.97 ± 0.76 kg/m3
- mass density (293.15 K, x1 = 0.1999): 766.37 ± 0.62 kg/m3
- mass density (293.15 K, x1 = 0.3): 752.87 ± 0.51 kg/m3
- mass density (293.15 K, x1 = 0.3997): 741.8 ± 0.43 kg/m3
- mass density (293.15 K, x1 = 0.4993): 732.43 ± 0.38 kg/m3
- mass density (293.15 K, x1 = 0.602): 724.19 ± 0.33 kg/m3
- mass density (293.15 K, x1 = 0.6991): 717.48 ± 0.3 kg/m3
- mass density (293.15 K, x1 = 0.7994): 711.55 ± 0.26 kg/m3
- mass density (293.15 K, x1 = 0.9): 706.48 ± 0.23 kg/m3
- mass density (293.15 K, x1 = 1): 702.54 ± 0.15 kg/m3
- viscosity (298.15 K, x1 = 0.0997): 1.508 ± 0.019 mPa·s
- viscosity (298.15 K, x1 = 0.1999): 1.216 ± 0.015 mPa·s
- viscosity (298.15 K, x1 = 0.3): 0.991 ± 0.012 mPa·s
- viscosity (298.15 K, x1 = 0.3997): 0.854 ± 0.011 mPa·s
- viscosity (298.15 K, x1 = 0.4993): 0.734 ± 0.01 mPa·s
- viscosity (298.15 K, x1 = 0.602): 0.65 ± 0.009 mPa·s
- viscosity (298.15 K, x1 = 0.6991): 0.589 ± 0.009 mPa·s
- viscosity (298.15 K, x1 = 0.7994): 0.55 ± 0.009 mPa·s
- viscosity (298.15 K, x1 = 0.9): 0.523 ± 0.009 mPa·s
- viscosity (298.15 K, x1 = 1): 0.513 ± 0.009 mPa·s
- mass density (298.15 K, x1 = 0.0997): 778.9 ± 0.76 kg/m3
- mass density (298.15 K, x1 = 0.1999): 762.25 ± 0.62 kg/m3
- mass density (298.15 K, x1 = 0.3): 748.72 ± 0.51 kg/m3
- mass density (298.15 K, x1 = 0.3997): 737.62 ± 0.43 kg/m3
- mass density (298.15 K, x1 = 0.4993): 728.24 ± 0.38 kg/m3
- mass density (298.15 K, x1 = 0.602): 719.99 ± 0.33 kg/m3
- mass density (298.15 K, x1 = 0.6991): 713.3 ± 0.3 kg/m3
- mass density (298.15 K, x1 = 0.7994): 707.39 ± 0.26 kg/m3
- mass density (298.15 K, x1 = 0.9): 702.35 ± 0.23 kg/m3
- mass density (298.15 K, x1 = 1): 698.49 ± 0.15 kg/m3
- viscosity (303.15 K, x1 = 0.0997): 1.352 ± 0.017 mPa·s
- viscosity (303.15 K, x1 = 0.1999): 1.097 ± 0.014 mPa·s
- viscosity (303.15 K, x1 = 0.3): 0.899 ± 0.012 mPa·s
- viscosity (303.15 K, x1 = 0.3997): 0.777 ± 0.01 mPa·s
- viscosity (303.15 K, x1 = 0.4993): 0.675 ± 0.01 mPa·s
- viscosity (303.15 K, x1 = 0.602): 0.603 ± 0.009 mPa·s
- viscosity (303.15 K, x1 = 0.6991): 0.55 ± 0.009 mPa·s
- viscosity (303.15 K, x1 = 0.7994): 0.515 ± 0.009 mPa·s
- viscosity (303.15 K, x1 = 0.9): 0.491 ± 0.009 mPa·s
- viscosity (303.15 K, x1 = 1): 0.485 ± 0.009 mPa·s
- mass density (303.15 K, x1 = 0.0997): 774.8 ± 0.77 kg/m3
- mass density (303.15 K, x1 = 0.1999): 758.1 ± 0.62 kg/m3
- mass density (303.15 K, x1 = 0.3): 744.53 ± 0.51 kg/m3
- mass density (303.15 K, x1 = 0.3997): 733.4 ± 0.44 kg/m3
- mass density (303.15 K, x1 = 0.4993): 724.01 ± 0.38 kg/m3
- mass density (303.15 K, x1 = 0.602): 715.77 ± 0.33 kg/m3
- mass density (303.15 K, x1 = 0.6991): 709.09 ± 0.3 kg/m3
- mass density (303.15 K, x1 = 0.7994): 703.2 ± 0.26 kg/m3
- mass density (303.15 K, x1 = 0.9): 698.19 ± 0.23 kg/m3
- mass density (303.15 K, x1 = 1): 694.44 ± 0.16 kg/m3
- viscosity (308.15 K, x1 = 0.0997): 1.211 ± 0.015 mPa·s
- viscosity (308.15 K, x1 = 0.1999): 0.992 ± 0.013 mPa·s
- viscosity (308.15 K, x1 = 0.3): 0.817 ± 0.011 mPa·s
- viscosity (308.15 K, x1 = 0.3997): 0.712 ± 0.01 mPa·s
- viscosity (308.15 K, x1 = 0.4993): 0.623 ± 0.009 mPa·s
- viscosity (308.15 K, x1 = 0.602): 0.56 ± 0.009 mPa·s
- viscosity (308.15 K, x1 = 0.6991): 0.514 ± 0.009 mPa·s
- viscosity (308.15 K, x1 = 0.7994): 0.484 ± 0.009 mPa·s
- viscosity (308.15 K, x1 = 0.9): 0.463 ± 0.009 mPa·s
- viscosity (308.15 K, x1 = 1): 0.459 ± 0.009 mPa·s
- mass density (308.15 K, x1 = 0.0997): 770.67 ± 0.77 kg/m3
- mass density (308.15 K, x1 = 0.1999): 753.91 ± 0.62 kg/m3
- mass density (308.15 K, x1 = 0.3): 740.3 ± 0.52 kg/m3
- mass density (308.15 K, x1 = 0.3997): 729.15 ± 0.44 kg/m3
- mass density (308.15 K, x1 = 0.4993): 719.75 ± 0.38 kg/m3
- mass density (308.15 K, x1 = 0.602): 711.51 ± 0.33 kg/m3
- mass density (308.15 K, x1 = 0.6991): 704.85 ± 0.3 kg/m3
- mass density (308.15 K, x1 = 0.7994): 698.98 ± 0.26 kg/m3
- mass density (308.15 K, x1 = 0.9): 694.02 ± 0.23 kg/m3
- mass density (308.15 K, x1 = 1): 690.37 ± 0.16 kg/m3
- viscosity (313.15 K, x1 = 0.0997): 1.09 ± 0.014 mPa·s
- viscosity (313.15 K, x1 = 0.1999): 0.898 ± 0.012 mPa·s
- viscosity (313.15 K, x1 = 0.3): 0.745 ± 0.01 mPa·s
- viscosity (313.15 K, x1 = 0.3997): 0.653 ± 0.01 mPa·s
- viscosity (313.15 K, x1 = 0.4993): 0.576 ± 0.009 mPa·s
- viscosity (313.15 K, x1 = 0.602): 0.52 ± 0.009 mPa·s
- viscosity (313.15 K, x1 = 0.6991): 0.481 ± 0.009 mPa·s
- viscosity (313.15 K, x1 = 0.7994): 0.455 ± 0.009 mPa·s
- viscosity (313.15 K, x1 = 0.9): 0.436 ± 0.009 mPa·s
- viscosity (313.15 K, x1 = 1): 0.433 ± 0.009 mPa·s
- mass density (313.15 K, x1 = 0.0997): 766.5 ± 0.77 kg/m3
- mass density (313.15 K, x1 = 0.1999): 749.69 ± 0.62 kg/m3
- mass density (313.15 K, x1 = 0.3): 736.04 ± 0.52 kg/m3
- mass density (313.15 K, x1 = 0.3997): 724.85 ± 0.44 kg/m3
- mass density (313.15 K, x1 = 0.4993): 715.44 ± 0.38 kg/m3
- mass density (313.15 K, x1 = 0.602): 707.21 ± 0.33 kg/m3
- mass density (313.15 K, x1 = 0.6991): 700.57 ± 0.3 kg/m3
- mass density (313.15 K, x1 = 0.7994): 694.73 ± 0.26 kg/m3
- mass density (313.15 K, x1 = 0.9): 689.81 ± 0.23 kg/m3
- mass density (313.15 K, x1 = 1): 686.29 ± 0.16 kg/m3
- viscosity (318.15 K, x1 = 0.0997): 0.984 ± 0.013 mPa·s
- viscosity (318.15 K, x1 = 0.1999): 0.817 ± 0.011 mPa·s
- viscosity (318.15 K, x1 = 0.3): 0.68 ± 0.01 mPa·s
- viscosity (318.15 K, x1 = 0.3997): 0.605 ± 0.009 mPa·s
- viscosity (318.15 K, x1 = 0.4993): 0.534 ± 0.009 mPa·s
- viscosity (318.15 K, x1 = 0.602): 0.485 ± 0.009 mPa·s
- viscosity (318.15 K, x1 = 0.6991): 0.451 ± 0.009 mPa·s
- viscosity (318.15 K, x1 = 0.7994): 0.427 ± 0.009 mPa·s
- viscosity (318.15 K, x1 = 0.9): 0.412 ± 0.008 mPa·s
- viscosity (318.15 K, x1 = 1): 0.412 ± 0.008 mPa·s
- mass density (318.15 K, x1 = 0.0997): 762.28 ± 0.77 kg/m3
- mass density (318.15 K, x1 = 0.1999): 745.41 ± 0.63 kg/m3
- mass density (318.15 K, x1 = 0.3): 731.72 ± 0.52 kg/m3
- mass density (318.15 K, x1 = 0.3997): 720.51 ± 0.44 kg/m3
- mass density (318.15 K, x1 = 0.4993): 711.09 ± 0.38 kg/m3
- mass density (318.15 K, x1 = 0.602): 702.87 ± 0.33 kg/m3
- mass density (318.15 K, x1 = 0.6991): 696.25 ± 0.3 kg/m3
- mass density (318.15 K, x1 = 0.7994): 690.45 ± 0.26 kg/m3
- mass density (318.15 K, x1 = 0.9): 685.58 ± 0.23 kg/m3
- mass density (318.15 K, x1 = 1): 682.19 ± 0.16 kg/m3
- viscosity (323.15 K, x1 = 0.0997): 0.89 ± 0.012 mPa·s
- viscosity (323.15 K, x1 = 0.1999): 0.742 ± 0.011 mPa·s
- viscosity (323.15 K, x1 = 0.3): 0.623 ± 0.01 mPa·s
- viscosity (323.15 K, x1 = 0.3997): 0.554 ± 0.009 mPa·s
- viscosity (323.15 K, x1 = 0.4993): 0.496 ± 0.009 mPa·s
- viscosity (323.15 K, x1 = 0.602): 0.452 ± 0.009 mPa·s
- viscosity (323.15 K, x1 = 0.6991): 0.423 ± 0.009 mPa·s
- viscosity (323.15 K, x1 = 0.7994): 0.403 ± 0.008 mPa·s
- viscosity (323.15 K, x1 = 0.9): 0.389 ± 0.008 mPa·s
- viscosity (323.15 K, x1 = 1): 0.392 ± 0.008 mPa·s
- mass density (323.15 K, x1 = 0.0997): 758.02 ± 0.78 kg/m3
- mass density (323.15 K, x1 = 0.1999): 741.08 ± 0.63 kg/m3
- mass density (323.15 K, x1 = 0.3): 727.35 ± 0.52 kg/m3
- mass density (323.15 K, x1 = 0.3997): 716.12 ± 0.44 kg/m3
- mass density (323.15 K, x1 = 0.4993): 706.7 ± 0.38 kg/m3
- mass density (323.15 K, x1 = 0.602): 698.49 ± 0.33 kg/m3
- mass density (323.15 K, x1 = 0.6991): 691.9 ± 0.3 kg/m3
- mass density (323.15 K, x1 = 0.7994): 686.13 ± 0.26 kg/m3
- mass density (323.15 K, x1 = 0.9): 681.32 ± 0.23 kg/m3
- mass density (323.15 K, x1 = 1): 678.08 ± 0.16 kg/m3
